Experimental findings from patent US20090298783A1, “Cosmetic Compositions” (Cognis IPanagement GmbH, priority 2006, published 2009) are described below.

Marks after values point to notes of the source that are not given here.

In series [1] the test system is GMCSF. In words: Nickel-induced GMCSF release from human keratinocytes (ELISA). It counts as cell-based. To be noted: 48 hours. Here is the method: (§1) The soothing potential of silybin, piperin, rhapontin, nortrachelogenine and arctiin was evaluated on primary culture of human keratinocytes treated by a nickel salt (nickel chloride, Sigma) according to the method of Ermolli M, et al. “Nickel, cobalt and chromium-induced cytotoxicity and intracellular accumulation in human HaCaT keratinocytes” [Toxicology. 2001 Feb. 21; 159(1-2): 23-31] and compared to hydrocortisone (HOC; Sigma, France).
(§2) After a growth phase in medium enriched by fetal calf serum, the cells were treated with the nickel salt and with the test compounds. After 48 hours at 37° C., CO2=5%, the level of released GMCSF (ELISA method) and cell viability (MTT test) were determined.
A general note: ELISA stands for enzyme-linked immunosorbent assay.

Series [2] deals with primary culture of human keratinocytes. Description: Cell viability (MTT test) of nickel-treated human keratinocytes. To be noted: nickel salt alone at 0.75 mM, 48 hours. Here is the method: as §1, §2
On the technique in general: Tetrazolium dyes change colour on reduction, which living cells bring about.

Where [3] appears, read: first set, Ni 0.75 mM (=100) + test compound at 0.001%, mean +/- SEM on 3 separate assays.

Consider `C[C@]12CCC(=O)C=C1CC[C@@H]1[C@@H]2[C@@H](O)C[C@@]2(C)[C@H]1CC[C@]2(O)C(=O)CO` [HOC, hydrocortisone, reference compound], for which the GMCSF released in series [1] (second set, Ni 0.75 mM (=100) + test compound at 1 μM, mean on 1 assay in triplicate) is on record as 52 percentage referring to control.
In the case of `[Cl][Ni][Cl]` [Nickel (Ni), nickel chloride], the MTT was 68 +/− 9 percentage referring to control in series [2] (first set, mean +/- SEM on 3 separate assays); “distinctly decreased cell viability” in series [2] (first set, mean +/- SEM on 3 separate assays, listed as nickel); 33 percentage referring to control in series [2] (second set, mean on 1 assay in triplicate).
As to `O=C(/C=C/C=C/c1ccc2c(c1)OCO2)N1CCCCC1` [piperine, (E,E)-1-[5-(1,3-benzodioxol-5-yl)-1-oxo-2,4-pentadienyl]piperidine], the GMCSF released in series [1] (setting [3]) is 79 +/− 14 percentage referring to control; in series [1] (first set, Ni 0.75 mM (=100) + test compound at 0.003%, mean +/- SEM on 3 separate assays) it was 29 +/− 13* percentage referring to control; in series [1] (first set, Ni 0.75 mM (=100) + test compound at 0.003%, mean +/- SEM on 3 separate assays, listed as Piperine), “significantly lowered”.
For the compound `COc1ccc(/C=C/c2cc(O)cc(O[C@@H]3O[C@H](CO)[C@@H](O)[C@H](O)[C@H]3O)c2)cc1O` [rhapontin, 3,3′,5-Trihydroxy-4′-methoxystilbene 3-b-D-glucopyranoside], the GMCSF released in series [1] (second set, Ni 0.75 mM (=100) + test compound at 0.01%, mean on 1 assay in triplicate) is recorded as 72 percentage referring to control; in series [1] (second set, Ni 0.75 mM (=100) + test compound at 0.01%, mean on 1 assay in triplicate, listed as Rhapontin), “lowered”.
In the case of `COc1cc([C@H]2Oc3cc([C@H]4Oc5cc(O)cc(O)c5C(=O)[C@@H]4O)ccc3O[C@@H]2CO)ccc1O` [silybin], the GMCSF released in series [1] (first set, Ni 0.75 mM (=100) + test compound at 0.0003%, mean +/- SEM on 3 separate assays) is given as 88 +/− 19 percentage referring to control; in series [1] (setting [3]), 48 +/− 12* percentage referring to control; in series [1] (first set, Ni 0.75 mM (=100) + test compound at 0.001%, mean +/- SEM on 3 separate assays, listed as Silybin) it was “significantly lowered”.
